Key:
Assay type in all cases: in vivo
monomer/oligomer Aβ = assay: Monomer/oligomer Aβ expression in skin tissue after oral administration (fluorescence imaging); details: 100 μg/Kg/0.1 ml twice a week, 2 months, APP/PS/Tau mouse
[1] = tested on: hair loss mouse model APP/PS/Tau; assay: Hair loss mouse model, oral administration, changes in appearance; details: 100 μg/Kg twice a week for 2 months
Description: (§1) APP/PS/Tau was purchased as a dementia mouse model from Jackson lab (BAR HARBOR, USA), and APP/Tau female and APP/PSen1de9 purchased from Taconic (Hudson, USA) were cross-mated for 6 generations, and 4-month-old mouse models were obtained from F1.
In order to examine therapeutic effects of the benzene diamine derivative of the present disclosure on hair loss, the benzene diamine derivative was orally administered to hair loss-induced mouse models, and changes in appearance were examined. The animal model of Experimental Example 2-1 was characterized by appearance of hair loss as well as dementia symptoms. Therefore, the animal model of Experimental Example 2-1 was used as a hair loss mouse model.
The hair loss mouse models were divided into groups of 6 mice, and among the hair loss mouse models, the control group were orally administered with a phosphate buffer vehicle (PBS) for 2 months, and the experimental group was orally administered with 100 μl of N1-(pyridin-2-ylmethyl)benzene-1,4-diamine (Compound 2) at a concentration of 100 μg/Kg twice a week for 2 months. Thereafter, changes in their appearance were compared.

SOX-9 = SOX-9 expression in skin tissue after oral administration (fluorescence imaging); details: 100 μg/Kg/0.1 ml twice a week, 2 months, APP/PS/Tau mouse
Method: (§2) Accordingly, the present inventors examined whether expressions of hair growth stimulating factors, SOX-2 and SOX-9 were increased in hair loss animal models by the benzene diamine derivatives of the present disclosure. In order to examine SOX-2 and SOX-9 expressions inside skin tissues, APP/PS/Tau mouse which is a hair loss-induced mouse model was selected as a control group and C57BL6 mouse was selected as a normal group, as in Example 5. An experimental group was prepared by orally administering the control group with the benzene diamine derivative at a concentration of 100 μg/Kg/0.1 ml using a zonde twice a week. 2 months later, incision of the skin was performed under local anesthesia, and the skin tissues were fixed in 4% paraformaldehyde solution for 24 hours, and fixed in a plastic mold with O.C.T. Compound (SAKURA, USA) for cryostat sectioning. […] Thereafter, the plate was put on a slide glass and covered with a cover slide, and stored in a dark acrylic box, and fluorescence imaging was observed under a confocal microscope (LSM710, Carl Zeiss, Germany) by 405/488/565 nm laser. […]

[2] = tested on: dementia mouse model APP/PS/Tau; assay: Morris water maze test in dementia mouse model; details: for mean escape latency: 100 μg/kg twice a week for 2 months
Description: as §1
In order to examine therapeutic effects of the benzene diamine derivative of the present disclosure on dementia, enhancement of spatial cognition and memory in dementia mouse models were investigated. For this investigation, a Morris water maze (Harvard Apparatus, USA) test was performed.
In detail, a water maze composed of a stainless steel pool with a diameter of 150 cm×a height of 60 cm and an escape platform (10 cm in diameter, 30 cm in height) was filled with water at […], and the height was 2 cm above the platform such that when a mouse sat on the escape platform, the body was allowed to come out of the water. […] Escape latency was measured as the time taken for the experimental animal to go to the escape platform when the experimental animal went to the escape platform and stayed thereon for more than 20 seconds. This test was performed three times a day, and a mean value was determined as mean escape latency. The escape latency was recorded on the computer program (Smart Video Tracking System V3.0, PanLab SL, Barcelona, Spain) by installing a camera on the ceiling above the water tank. The experiment was performed three times a day for 6 days, and at this time, the possibility of accidentally visiting the escape platform was minimized by sequentially changing the positions of the experimental animals in the water tank. In the experiment, a normal mouse, a control dementia mouse administered with a vehicle (PBS) and an experimental dementia mouse administered with 100 μg/kg of N^1-(pyridin-2-ylmethyl)benzene-1,4-diamine (Compound 2) twice a week for 2 months were used after completing administration.

SOX-2 = SOX-2 expression in skin tissue after oral administration (fluorescence imaging); details: 100 μg/Kg/0.1 ml twice a week, 2 months, APP/PS/Tau mouse
Method: as §2

N^1-(pyridin-2-ylmethyl)benzene-1,4-diamine [Compound 2]
monomer/oligomer Aβ expression in skin (monomer/oligomer Aβ): decreased | changes in appearance (hair loss) [1]: remarkable improvement in hair loss | SOX-9 expression in skin (SOX-9): remarkably increased | mean escape latency ([2]; at 3 days, compared with dementia control group): significantly short mean escape latency | difference of mean escape latency, control group vs experimental group ([2]; at 4 days): 16 s | mean escape latency ([2]; at 4 days): 26 ± 1 s | difference of mean escape latency, dementia group vs treated group ([2]; at 5 days): 19 s | mean escape latency ([2]; at 5 days): 24 ± 1 s | SOX-2 expression in skin (SOX-2): remarkably expressed close to the normal group
